# Test results: publication PMC5358098 (ACS chemical neuroscience, 2016)
# Read-outs that look alike come from different tables or passages of the source.
# Tests used:
# [1] = molecular target: T1, CB1R (Mus musculus, UniProt P47746); type: cell-based; conditions: Neuro2a, 10 min
# [2] = molecular target: T1, CB1R; assay: Operational model bias analysis, Neuro2a cells; type: cell-based; conditions: for ΔΔlog R β-arrestin1/pPLCβ3: reference 2-AG + GAT100
# [3] = molecular target: T1, CB1R; type: cell-based; conditions: Neuro2a, 10 min; remark: listed apart in the source
# [4] = molecular target: T1, CB1R; assay: Operational model bias analysis, STHdh^Q7/Q7 cells; conditions: STHdh^Q7/Q7
# [5] = test system: CB1R; conditions: cited from earlier work
# [6] = molecular target: T2, CB1R (Homo sapiens, UniProt P21554); assay: cell-based; type: cell-based
# [7] = molecular target: T2, CB1R; assay: [3H]SR141716A equilibrium binding, hCB1R CHO cell membranes
# [8] = test system: CB1R; type: cell-based; conditions: mean of data for the pathway (Table 3), all cells and orthosteric ligands
# [9] = molecular target: T2, CB1R; type: cell-based; conditions: Neuro2a, 30 min
# [10] = test system: CB1R; type: cell-based; conditions: mean of data for the pathway (Table 2), all cells and orthosteric ligands
# [11] = molecular target: T2, CB1R; type: cell-based; conditions: HEK293A, 30 min
# [12] = molecular target: T2, CB1R; assay: cell-based
# [13] = molecular target: T2, CB1R; assay: cell-based; type: cell-based; remark: listed apart in the source
# [14] = test system: CB1R
# [15] = molecular target: T2, CB1R; type: cell-based; conditions: HEK293A, 10 min
# [16] = molecular target: T1, CB1R; conditions: STHdh^Q7/Q7; 1 μM + 500 nM CP55,940
# [17] = test system: hCB1R; assay: Operational model bias analysis, HEK293A cells; type: cell-based, human; conditions: HEK293A; for ΔΔlog R β-arrestin1/cAMP / ΔΔlog R β-arrestin1/pPLCβ3: reference 2-AG + GAT100
# [18] = 500 nM 2-AG + 1 nM-10 μM allosteric modulator
# [19] = 500 nM AEA + 1 nM-10 μM allosteric modulator
# [20] = 500 nM CP55,940 + 1 nM-10 μM allosteric modulator
# T1 sequence (P47746 whole entry): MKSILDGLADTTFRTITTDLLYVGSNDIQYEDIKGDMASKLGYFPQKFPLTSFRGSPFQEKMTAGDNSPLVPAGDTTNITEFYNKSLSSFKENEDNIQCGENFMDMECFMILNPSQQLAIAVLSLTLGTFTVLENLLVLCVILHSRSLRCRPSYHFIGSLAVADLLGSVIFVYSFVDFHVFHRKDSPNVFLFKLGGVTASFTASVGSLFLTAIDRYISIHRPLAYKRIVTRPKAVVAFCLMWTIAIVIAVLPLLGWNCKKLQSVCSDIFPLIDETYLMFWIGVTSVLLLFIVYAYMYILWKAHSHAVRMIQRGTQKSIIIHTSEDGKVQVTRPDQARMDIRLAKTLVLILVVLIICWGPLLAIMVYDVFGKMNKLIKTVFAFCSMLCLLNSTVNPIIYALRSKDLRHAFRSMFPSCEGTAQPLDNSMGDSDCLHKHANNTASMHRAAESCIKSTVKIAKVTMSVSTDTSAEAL
# T2 sequence (P21554 whole entry): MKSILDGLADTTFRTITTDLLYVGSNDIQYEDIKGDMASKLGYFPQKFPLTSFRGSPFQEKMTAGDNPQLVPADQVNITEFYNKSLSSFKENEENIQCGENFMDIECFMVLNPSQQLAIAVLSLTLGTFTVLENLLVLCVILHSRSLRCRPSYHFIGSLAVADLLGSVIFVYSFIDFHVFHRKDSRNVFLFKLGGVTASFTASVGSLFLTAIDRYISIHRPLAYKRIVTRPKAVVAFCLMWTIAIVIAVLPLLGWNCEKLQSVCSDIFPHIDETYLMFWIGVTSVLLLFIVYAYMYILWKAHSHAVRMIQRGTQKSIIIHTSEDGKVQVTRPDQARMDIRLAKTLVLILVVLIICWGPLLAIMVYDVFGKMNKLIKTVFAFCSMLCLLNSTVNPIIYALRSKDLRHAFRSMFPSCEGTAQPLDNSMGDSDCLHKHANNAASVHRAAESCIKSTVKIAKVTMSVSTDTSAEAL
smiles,measurement,setting,value
"CCc1c(C(=O)NCCc2ccc(N3CCCCC3)cc2)[nH]c2ccc(N=C=S)cc12 [GAT100, 3-ethyl-5-isothiocyanato-N-(4-(piperidin-1-yl)phenethyl)-1H-indole-2-carboxamide]","Emax pPLCβ3/Total PLCβ3, 2-AG",[1]; 1 nM-10 μM 2-AG + 1 μM NAM,0.34 ± 0.02
same,"Emax pPLCβ3/Total PLCβ3, AEA",[1]; 1 nM-10 μM AEA + 1 μM NAM,0.37 ± 0.02
same,"Emax pPLCβ3/Total PLCβ3, CP55,940","[1]; 1 nM-10 μM CP55,940 + 1 μM NAM",0.39 ± 0.02
same,BF β-arrestin1/pERK1/2,[2]; [18],1.0
same,BF β-arrestin1/pPLCβ3,[2]; [18],1.0
same,ΔΔlog R β-arrestin1/pPLCβ3,[2]; [18],0.0 ± 0.1
same,BF β-arrestin1/pERK1/2,[2]; [19],7.9
same,BF β-arrestin1/pPLCβ3,[2]; [19],15.8
same,ΔΔlog R β-arrestin1/pPLCβ3,[2]; [19],1.2 ± 0.1
same,BF β-arrestin1/pERK1/2,[2]; [20],10.0
same,BF β-arrestin1/pPLCβ3,[2]; [20],3.2
same,ΔΔlog R β-arrestin1/pPLCβ3,[2]; [20],0.5 ± 0.2
same,"Emax pERK1/2/Total ERK1/2, 2-AG",[3]; 1 nM-10 μM 2-AG + 1 μM NAM,0.31 ± 0.02
same,"Emax pERK1/2/Total ERK1/2, AEA",[3]; 1 nM-10 μM AEA + 1 μM NAM,0.28 ± 0.02
same,"Emax pERK1/2/Total ERK1/2, CP55,940","[3]; 1 nM-10 μM CP55,940 + 1 μM NAM",0.33 ± 0.02
same,BF β-arrestin1/pERK1/2,[4]; [18],1.0
same,BF β-arrestin1/pPLCβ3,[4]; [18],1.0
same,BF β-arrestin1/pERK1/2,[4]; [19],1.3
same,BF β-arrestin1/pPLCβ3,[4]; [19],7.9
same,BF β-arrestin1/pERK1/2,[4]; [20],0.6
same,BF β-arrestin1/pPLCβ3,[4]; [20],5.0
same,"effect on CP55,940 equilibrium binding by CB1R",[5],"increase CP55,940 equilibrium binding"
same,"Emax pPLCβ3/Total PLCβ3, 2-AG","[6]; HEK293A, 1 nM-10 μM 2-AG + 1 μM NAM, 10 min",0.39 ± 0.02
same,"Emax pPLCβ3/Total PLCβ3, AEA","[6]; HEK293A, 1 nM-10 μM AEA + 1 μM NAM, 10 min",0.36 ± 0.01
same,"Emax pPLCβ3/Total PLCβ3, CP55,940","[6]; HEK293A, 1 nM-10 μM CP55,940 + 1 μM NAM, 10 min",0.39 ± 0.01
same,IC50,"[6]; IC50, PLCβ3 phosphorylation, CP55,940",76.6 nM
same,EC50,[7],410 nM
same,[3H]SR141716A binding at 10 μM,[7]; 10 μM,did not completely abrogate
same,fold greater potency than Org27569 as inhibitor of [3H]SR141716A binding,[7]; EC50 ratio,~ 6 fold
same,Emax,"[7]; read-out: Emax, [3H]SR141716A binding",22.6%
same,"Emax, ERK (pathway ligand bias summary)",[8],0.32 ± 0.01
same,"Emax (BRETEff), 2-AG",[9]; 1 nM-10 μM 2-AG + 1 μM NAM,0.25 ± 0.03
same,"Emax (BRETEff), AEA",[9]; 1 nM-10 μM AEA + 1 μM NAM,0.29 ± 0.02
same,"Emax (BRETEff), CP55,940","[9]; 1 nM-10 μM CP55,940 + 1 μM NAM",0.34 ± 0.02
same,"Emax, PLCβ3 (pathway ligand bias summary)",[10],0.38 ± 0.01
same,"Emax (BRETEff), 2-AG",[11]; 1 nM-10 μM 2-AG + 1 μM NAM,0.29 ± 0.01
same,"Emax (BRETEff), AEA",[11]; 1 nM-10 μM AEA + 1 μM NAM,0.37 ± 0.03
same,"Emax (BRETEff), CP55,940","[11]; 1 nM-10 μM CP55,940 + 1 μM NAM",0.30 ± 0.04
same,IC50,[12],35.8 nM
same,"Emax, β-arrestin1 (pathway ligand bias summary)","[12]; mean of data for the pathway (Table 1), all cells and orthosteric ligands",0.30 ± 0.01
same,IC50,[13],741 nM
same,effect on cAMP levels in the absence of orthosteric agonists (inverse agonism),"[13]; HEK-CRE, 10 μM forskolin + 1 nM to 10 μM compound alone, 4 h",did not affect cAMP accumulation
same,IC50,"[13]; IC50, cAMP, CP55,940",834 nM
same,"Emax, cAMP (pathway ligand bias summary)","[13]; mean of data for the pathway (Table 4), cAMP Emax divided by 100",0.16 ± 0.04
same,"Emax, 2-AG (probe dependence summary)",[14]; mean of data for 2-AG (Tables 1-4),0.31 ± 0.02
same,"Emax, AEA (probe dependence summary)",[14]; mean of data for AEA (Tables 1-4),0.36 ± 0.03
same,"Emax, CP55,940 (probe dependence summary)","[14]; mean of data for CP55,940 (Tables 1-4)",0.33 ± 0.02
same,"Emax, HEK293A (cell dependence summary)",[14]; mean of data for HEK293A (Tables 1-3),0.34 ± 0.01
same,"Emax, Neuro2a (cell dependence summary)",[14]; mean of data for Neuro2a (Tables 1-3),0.32 ± 0.01
same,"Emax, STHdh^Q7/Q7 (cell dependence summary)",[14]; mean of data for STHdh^Q7/Q7 (Tables 1-3),0.34 ± 0.02
same,"Emax pERK1/2/Total ERK1/2, 2-AG",[15]; 1 nM-10 μM 2-AG + 1 μM NAM,0.33 ± 0.02
same,"Emax pERK1/2/Total ERK1/2, AEA",[15]; 1 nM-10 μM AEA + 1 μM NAM,0.31 ± 0.02
same,"Emax pERK1/2/Total ERK1/2, CP55,940","[15]; 1 nM-10 μM CP55,940 + 1 μM NAM",0.29 ± 0.02
same,"effect on CP55,940-induced CB1R internalization (fraction of CB1R at the plasma membrane)",[16],reversed this effect
same,BF β-arrestin1/cAMP,[17]; [18],1.0
same,BF β-arrestin1/pERK1/2,[17]; [18],1.0
same,BF β-arrestin1/pPLCβ3,[17]; [18],1.0
same,ΔΔlog R β-arrestin1/cAMP,[17]; [18],0.0 ± 0.1
same,ΔΔlog R β-arrestin1/pPLCβ3,[17]; [18],0.0
same,BF β-arrestin1/cAMP,[17]; [19],0.8
same,BF β-arrestin1/pERK1/2,[17]; [19],0.3
same,BF β-arrestin1/pPLCβ3,[17]; [19],0.1
same,ΔΔlog R β-arrestin1/cAMP,[17]; [19],–0.1 ± 0.1
same,ΔΔlog R β-arrestin1/pPLCβ3,[17]; [19],–1.2 ± 0.8
same,BF β-arrestin1/cAMP,[17]; [20],1.3
same,BF β-arrestin1/pERK1/2,[17]; [20],0.6
same,BF β-arrestin1/pPLCβ3,[17]; [20],0.6
same,ΔΔlog R β-arrestin1/cAMP,[17]; [20],0.1 ± 0.1
same,ΔΔlog R β-arrestin1/pPLCβ3,[17]; [20],–0.2 ± 0.1
